This assay addresses T1, Bcl-2 protein (Homo sapiens, UniProt P10415, DELINS35-91DVEENRTEAPEGTESE, form not given).
T1 construct: fused on or other part: Bcl-xL (Q07817) residues 29-44 stand in place of Bcl-2's own unstructured loop 35-91; The C-terminal membrane anchor (208-239) is absent
As to the kind of experiment: Bcl-2 fluorescence polarization assay (FPA) binding. The following applies: 10 nM Bcl-2 protein, 1 nM fluorescein-labeled BAX peptide, room temperature, read-out: Bcl-2 FPA 11pt Ki. The procedure, abridged: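 Competitive fluorescence polarization with 10 nM Bcl-2 protein and 1 nM fluorescein-labeled BAX peptide in 20 mM phosphate pH 7.4, 1 mM EDTA, 0.05% PF-68. Compound dilutions in DMSO spanned […] to 10 pM; mix shaken 2 min, polarization read at room temperature (ex 485/em 530 nm); Ki values calculated.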
Background: In fluorescence polarisation assays a small probe gives low polarisation when free and higher when bound to something large.

Our source for the Ki values is patent publication US8188077B2, “Apoptosis-inducing agents for the treatment of cancer and immune and autoimmune diseases” (Abbott Laboratories, priority 2010, dated 2012).

Where only a bound is given, the exact number is not on record here.

T1 sequence (P10415 with tags, fused parts or gaps with the stated changes): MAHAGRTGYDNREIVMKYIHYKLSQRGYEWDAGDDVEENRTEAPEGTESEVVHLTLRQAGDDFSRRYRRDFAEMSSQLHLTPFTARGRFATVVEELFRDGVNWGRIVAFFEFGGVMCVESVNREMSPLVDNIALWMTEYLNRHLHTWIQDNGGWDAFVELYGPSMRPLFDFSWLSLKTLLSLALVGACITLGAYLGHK

The term Ki denotes a measure of affinity in units of concentration, obtained from inhibition or displacement. `O=C(NS(=O)(=O)c1ccc(NCC2CCOCC2)c([N+](=O)[O-])c1)c1ccc(N2CCN(Cc3ccccc3-c3ccc(C(=O)NC4CCCCCCC4)o3)CC2)cc1` [Example 29, N-cyclooctyl-5-{2-[(4-{4-[({3-nitro-4-[(tetrahydro-2H-pyran-4-ylmethyl)amino]phenyl}sulfonyl)carbamoyl]phenyl}piperazin-1-yl)methyl]phenyl}-2-furamide]: the Ki was found to be 354 nM.

For “N-(adamantan-2-yl)-6-methyl-8-{2-[(4-{4-[({3-nitro-4-[(tetrahydro-2H-pyran-4-ylmethyl)amino]phenyl}sulfonyl)carbamoyl]phenyl}piperazin-1-yl)methyl]phenyl}imidazo[1,2-a]pyridine-2-carboxamide [Example 26]”, the Ki was 1170 nM.

Turning to `O=C(NS(=O)(=O)c1ccc(NCC2CCOCC2)c([N+](=O)[O-])c1)c1ccc(N2CCC(=Cc3ccccc3-c3ccc(-c4nc(C56CC7CC(CC(C7)C5)C6)cs4)s3)CC2)cc1` [Example 74, 4-[4-(2-{5-[4-(adamantan-1-yl)-1,3-thiazol-2-yl]-2-thienyl}benzylidene)piperidin-1-yl]-N-({3-nitro-4-[(tetrahydro-2H-pyran-4-ylmethyl)amino]phenyl}sulfonyl)benzamide], the Ki stood at 102 nM.

For the compound `O=C(NS(=O)(=O)c1ccc(NC2CCOCC2)c([N+](=O)[O-])c1)c1ccc(N2CC3CN(C(=O)C45CC6CC(CC(C6)C4)C5)CC32)cc1` [Example 44, 4-{1S,5S)-3-[adamantan-1-ylcarbonyl]-3,6-diazabicyclo[3.2.0]hept-6-yl}-N-{[3-nitro-4-(tetrahydro-2H-pyran-4-ylamino)phenyl]sulfonyl}benzamide], the Ki was over 6250 nM.

On to `O=C(NS(=O)(=O)c1ccc(NCC2CCOCC2)c([N+](=O)[O-])c1)c1ccc(N2CCN(Cc3ccccc3NC3CC4CC3C3CCCC43)CC2)cc1` (centres unmarked) [Example 16], for which the Ki came to 39.7 nM.

In the case of `CN1c2ccccc2-c2ccccc2C1c1ccccc1CN1CCN(c2ccc(C(=O)NS(=O)(=O)c3ccc(NCC4CCOCC4)c([N+](=O)[O-])c3)cc2)CC1` (centres unmarked) [Example 66, 4-{4-[2-(5-methyl-5,6-dihydrophenanthridin-6-yl)benzyl]piperazin-1-yl}-N-({3-nitro-4-[(tetrahydro-2H-pyran-4-ylmethyl)amino]phenyl}sulfonyl)benzamide], the Ki was found to be 7.87 nM.

Take `O=C(NS(=O)(=O)c1ccc(NC2CCOCC2)c([N+](=O)[O-])c1)c1ccc(N2CCC(NC(=O)C34CC5CC(CC(C5)C3)C4)CC2)cc1` [Example 83, N-{1-[4-({[3-nitro-4-(tetrahydro-2H-pyran-4-ylamino)phenyl]sulfonyl}carbamoyl)phenyl]piperidin-4-yl}adamantane-1-carboxamide]: the Ki was over 6250 nM.

For `O=C(CCN(Cc1ccccc1)C(=O)CC12CC3CC(CC(C3)C1)C2)NS(=O)(=O)c1ccc(NCC2CCCCC2)c([N+](=O)[O-])c1` [Example 52, N^3-[adamantan-1-ylacetyl]-N^3-benzyl-N-({4-[(cyclohexylmethyl)amino]-3-nitrophenyl}sulfonyl)-beta-alaninamide], the Ki was 1390 nM.

`O=C(NS(=O)(=O)c1ccc(NC2CCOCC2)c([N+](=O)[O-])c1)c1ccc(OCCC23CC4CC(CC(C4)C2)C3)cc1` [Example 51, 4-{2-[adamantan-1-yl]ethoxy}-N-{[3-nitro-4-(tetrahydro-2H-pyran-4-ylamino)phenyl]sulfonyl}benzamide]: the Ki amounted to 1050 nM.

Consider `C[C@@H]1[C@H]2C[C@@H](C[C@H]1Nc1ccc(S(=O)(=O)NC(=O)c3ccc(N4CCN(Cc5ccccc5-c5ccc(Cl)cc5)CC4)cc3)cc1[N+](=O)[O-])C2(C)C` [Example 1, 4-{4-[(4′-chlorobiphenyl-2-yl)methyl]piperazin-1-yl}-N-[(3-nitro-4-{[(1R,2R,3R,5S)-2,6,6-trimethylbicyclo[3.1.1]hept-3-yl]amino}phenyl)sulfonyl]benzamide], for which the Ki turned out to be 174 nM.

As to `CC1(C)[C@@H]2CC[C@@]1(CS(=O)(=O)NC(=O)c1ccc(N3CCN(Cc4ccccc4-c4ccc(Cl)cc4)CC3)cc1)C(=O)C2` [Example 59, 4-{4-[(4′-chlorobiphenyl-2-yl)methyl]piperazin-1-yl}-N-({[(1S,4R)-7,7-dimethyl-2-oxobicyclo[2.2.1]hept-1-yl]methyl}sulfonyl)benzamide], the Ki worked out at 66.7 nM.

For the compound `C[C@@H]1[C@@H](Nc2ccc(C=C3CCN(c4ccc(C(=O)NS(=O)(=O)c5ccc(NCC6CCOCC6)c([N+](=O)[O-])c5)cc4)CC3)cc2)C[C@H]2C[C@@H]1C2(C)C` [Example 72, N-({3-nitro-4-[(tetrahydro-2H-pyran-4-ylmethyl)amino]phenyl}sulfonyl)-4-[4-(4-{[(1S,2S,3S,5R)-2,6,6-trimethylbicyclo[3.1.1]hept-3-yl]amino}benzylidene)piperidin-1-yl]benzamide], the inhibition constant Ki turned out to be 287 nM.

Take `C[C@@H]1[C@@H](N(C(=O)CCc2ccccc2)C2CCN(c3ccc(C(=O)NS(=O)(=O)c4ccc(NCC5CCCCC5)c([N+](=O)[O-])c4)cc3)CC2)C[C@H]2C[C@@H]1C2(C)C` [Example 46, N-({4-[(cyclohexylmethyl)amino]-3-nitrophenyl}sulfonyl)-4-(4-{(3-phenylpropanoyl)[(1S,2S,3S,5R)-2,6,6-trimethylbicyclo[3.1.1]hept-3-yl]amino}piperidin-1-yl)benzamide]: the Ki stood at 33 nM.

For `CC1(C)[C@@H]2CC[C@@]1(C)CN(c1ccc(C(=O)NS(=O)(=O)c3ccc(NC4CCOCC4)c([N+](=O)[O-])c3)cc1)C2` [Example 79, N-{[3-nitro-4-(tetrahydro-2H-pyran-4-ylamino)phenyl]sulfonyl}-4-[(1R,5S)-1,8,8-trimethyl-3-azabicyclo[3.2.1]oct-3-yl]benzamide], the Ki came to 1420 nM.
